According to ChEMBL document CHEMBL5537169, “Structure-Activity Relationships and Discovery of (S)-6-Isopropyl-2-methoxy-3-(3-methoxypropoxy)-10-oxo-5,10-dihydro-6H-pyrido[1,2-h][1,7]naphthyridine-9-carboxylic Acid (AB-452), a Novel Orally Available HBV RNA Destabilizer” (J Med Chem, 2024):
In brackets after ≈: the same amount, converted by molar mass.

Legend:
[1] = Cmax in Beagle dog at 10 mg/kg,po measured at 0.083 to 24 hrs post administration by LC-MS/MS analysis; format: ADME, organism-based, Canis lupus familiaris; settings: in vivo, time 0.083-24 hrs
[2] = Protein binding in human plasma assessed as fraction unbound at 2 uM incubated for 6 hrs by equilibrium dialysis based LC-MS/MS analysis; format: ADME, cell-free
[3] = Half life in Sprague-Dawley rat at 10 mg/kg,po measured at 0.083 to 24 hrs post administration by LC-MS/MS analysis; format: ADME, organism-based; settings: Sprague-Dawley, in vivo, time 0.083-24 hrs
[4] = Oral bioavailability in Beagle dog at 10 mg/kg measured at 0.083 to 24 hrs by LC-MS/MS analysis; format: ADME, organism-based, Canis lupus familiaris; settings: in vivo, time 0.083-24 hrs
[5] = Clearance in human liver microsomes at 0.3 uM pre-incubated for 10 mins followed by NADPH addition incubated for 60 mins by LC-MS/MS analysis; format: ADME, Microsome; settings: time 70 min, read-out: CLH
[6] = Clearance in CD-1 mouse liver microsomes at 0.3 uM pre-incubated for 10 mins followed by NADPH addition incubated for 60 mins by LC-MS/MS analysis; format: ADME, Microsome; settings: time 70 min, read-out: CLH
[7] = Protein binding in mouse plasma assessed as fraction unbound at 2 uM incubated for 6 hrs by equilibrium dialysis based LC-MS/MS analysis; format: ADME, cell-free
Cytochrome P450 2C19 = Cytochrome P450 2C19 (Homo sapiens, UniProt P33261); assay: Reversible inhibition of CYP2C19 in human liver microsomes using S-mephenytoin as substrate pre-incubated for 30 mins followed by NADPH addition and measured after 10 mins by LC-MS/MS analysis; format: ADME, Microsome
Cytochrome P450 2C19, sequence (P33261 whole entry): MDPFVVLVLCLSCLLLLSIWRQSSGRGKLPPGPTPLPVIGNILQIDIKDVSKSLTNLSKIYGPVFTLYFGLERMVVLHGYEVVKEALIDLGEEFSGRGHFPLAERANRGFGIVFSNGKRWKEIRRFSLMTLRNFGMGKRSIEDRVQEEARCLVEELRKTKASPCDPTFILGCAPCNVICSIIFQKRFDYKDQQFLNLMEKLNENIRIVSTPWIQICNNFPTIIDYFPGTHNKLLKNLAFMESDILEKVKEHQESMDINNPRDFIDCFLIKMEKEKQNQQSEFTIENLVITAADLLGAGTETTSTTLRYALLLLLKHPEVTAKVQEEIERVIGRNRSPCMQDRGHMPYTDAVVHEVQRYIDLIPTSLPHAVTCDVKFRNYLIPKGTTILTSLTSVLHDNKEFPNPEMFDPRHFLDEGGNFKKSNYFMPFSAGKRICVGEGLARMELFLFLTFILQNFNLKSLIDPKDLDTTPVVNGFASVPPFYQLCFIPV

Hepatitis B virus = assay: Antiviral activity against HBV infected in human HepG2.2.15 cells assessed as inhibition of HBsAg level incubated for 6 days by microplate-based chemiluminescence immunoassay; format: functional, organism-based; settings: HepG2 2.2.15, 144 h
[8] = Oral bioavailability in Sprague-Dawley rat at 10 mg/kg measured at 0.083 to 24 hrs by LC-MS/MS analysis; format: ADME, organism-based; settings: in vivo, time 0.083-24 hrs; for bioavailability: Sprague-Dawley
[9] = Clearance in CD-1 mouse at 2 mg/kg,iv measured at 0.083 to 24 hrs post administration by LC-MS/MS analysis; format: ADME, organism-based; settings: in vivo, time 0.083-24 hrs
[10] = AUCinfinity in Beagle dog at 2 mg/kg,iv measured at 0.083 to 24 hrs post administration by LC-MS/MS analysis; format: ADME, organism-based, Canis lupus familiaris; settings: in vivo, time 0.083-24 hrs; for AUC(0-inf): Beagle
[11] = Drug accumulation in Beagle dog plasma assessed as fold change in drug uptake at 10 mg/kg,po measured at 0.083 to 24 hrs post administration by LC-MS/MS analysis; format: ADME, organism-based, Canis lupus familiaris; settings: in vivo, time 0.083-24 hrs
[12] = Kinetic solubility of compound in PBS at pH 7.4 incubated for 24 hrs by UPLC-UV analysis; format: physicochemical; settings: read-out: Kinetic_solubility
[13] = Apparent volume of distribution at steady state in Beagle dog at 2 mg/kg,iv measured at 0.083 to 24 hrs post administration by LC-MS/MS analysis; format: ADME, organism-based, Canis lupus familiaris; settings: in vivo, time 0.083-24 hrs; for Vd: Beagle, read-out: Vdss(app)
[14] = Cardiotoxicity in Langendorff-perfused New Zealand White rabbit heart assessed as decrease in left ventricular contractility at 10 uM incubated for 45 mins by ECG analysis; format: toxicity, tissue-based, Oryctolagus cuniculus; parameters: scale not given: the % may be the effect or the level left; settings: 0.75 h
[15] = Cmax in CD-1 mouse at 10 mg/kg,po measured at 0.083 to 24 hrs post administration by LC-MS/MS analysis; format: ADME, organism-based; settings: in vivo, time 0.083-24 hrs
[16] = AUCinfinity in Sprague-Dawley rat at 10 mg/kg,po measured at 0.083 to 24 hrs post administration by LC-MS/MS analysis; format: ADME, organism-based; settings: in vivo, time 0.083-24 hrs; for AUC(0-inf): Sprague-Dawley
[17] = Half life in CD-1 mouse at 10 mg/kg,po measured at 0.083 to 24 hrs post administration by LC-MS/MS analysis; format: ADME, organism-based; settings: in vivo, time 0.083-24 hrs
[18] = Half life in Beagle dog at 2 mg/kg,iv measured at 0.083 to 24 hrs post administration by LC-MS/MS analysis; format: ADME, organism-based, Canis lupus familiaris; settings: in vivo, time 0.083-24 hrs; for half-life: Beagle
Cytochrome P450 1A2 = molecular target: T1, Cytochrome P450 1A2 (Homo sapiens, UniProt P05177); assay: Reversible inhibition of CYP1A2 in human liver microsomes using phenacetin as substrate pre-incubated for 30 mins followed by NADPH addition and measured after 10 mins by LC-MS/MS analysis; format: ADME, Microsome
T1 sequence (P05177 whole entry): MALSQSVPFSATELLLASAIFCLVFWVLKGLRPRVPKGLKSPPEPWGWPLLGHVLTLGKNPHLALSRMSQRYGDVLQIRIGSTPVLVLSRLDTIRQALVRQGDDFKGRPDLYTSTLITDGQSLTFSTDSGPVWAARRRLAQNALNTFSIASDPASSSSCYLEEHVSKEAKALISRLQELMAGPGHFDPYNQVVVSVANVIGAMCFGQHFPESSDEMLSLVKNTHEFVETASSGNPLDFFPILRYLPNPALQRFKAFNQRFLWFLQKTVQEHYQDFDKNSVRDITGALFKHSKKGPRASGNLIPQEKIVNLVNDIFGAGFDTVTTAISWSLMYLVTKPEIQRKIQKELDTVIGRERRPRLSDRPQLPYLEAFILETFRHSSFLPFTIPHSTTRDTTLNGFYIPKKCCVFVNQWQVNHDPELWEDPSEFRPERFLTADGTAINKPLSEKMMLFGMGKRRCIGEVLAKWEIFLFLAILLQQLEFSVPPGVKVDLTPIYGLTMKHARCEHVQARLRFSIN

[19] = AUCinfinity in Beagle dog at 10 mg/kg,po measured at 0.083 to 24 hrs post administration by LC-MS/MS analysis; format: ADME, organism-based, Canis lupus familiaris; settings: in vivo, time 0.083-24 hrs
[20] = Cardiotoxicity in Langendorff-perfused New Zealand White rabbit heart assessed as decrease in left ventricular pressure at 10 uM incubated for 45 mins by ECG analysis; format: toxicity, tissue-based, Oryctolagus cuniculus; parameters: scale not given: the % may be the effect or the level left; settings: 0.75 h
[21] = Oral bioavailability in CD-1 mouse at 10 mg/kg measured at 0.083 to 24 hrs by LC-MS/MS analysis; format: ADME, organism-based; settings: in vivo, time 0.083-24 hrs
Cytochrome P450 2B6 = molecular target: T2, Cytochrome P450 2B6 (Homo sapiens, UniProt P20813); assay: Reversible inhibition of CYP2B6 in human liver microsomes using bupropion as substrate pre-incubated for 30 mins followed by NADPH addition and measured after 10 mins by LC-MS/MS analysis; format: ADME, Microsome
T2 sequence (P20813 whole entry): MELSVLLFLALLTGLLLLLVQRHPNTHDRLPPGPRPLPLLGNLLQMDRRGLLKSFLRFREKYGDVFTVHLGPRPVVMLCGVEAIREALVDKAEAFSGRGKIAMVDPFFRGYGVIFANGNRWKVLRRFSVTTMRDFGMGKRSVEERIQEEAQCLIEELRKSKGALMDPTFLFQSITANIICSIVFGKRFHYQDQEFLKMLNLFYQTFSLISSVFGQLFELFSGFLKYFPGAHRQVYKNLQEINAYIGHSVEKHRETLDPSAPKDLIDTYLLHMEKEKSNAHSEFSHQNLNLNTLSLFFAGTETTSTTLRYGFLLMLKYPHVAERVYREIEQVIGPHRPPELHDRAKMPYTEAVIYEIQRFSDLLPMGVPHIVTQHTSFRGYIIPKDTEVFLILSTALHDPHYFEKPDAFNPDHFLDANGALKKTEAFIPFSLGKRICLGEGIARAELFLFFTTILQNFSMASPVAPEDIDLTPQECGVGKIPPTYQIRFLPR

Cmax [1] [ng/mL] | fraction unbound at 6 h, 2 µM [2] | half-life [3] [h] | bioavailability [4] [%] | microsomal CLint at 0.3 µM [5] [µL/min/mg] | microsomal CLint at 0.3 µM [6] [µL/min/mg] | fraction unbound at 6 h, 2 µM [7] | IC50 (Cytochrome P450 2C19) [µM] | EC50 (Hepatitis B virus) [µM] | clearance [9] [mL/min/kg] | fold change (FC) [11] | solubility kinetic at 24 h [12] [µM] | Cmax [15] [ng/mL] | half-life [17] [h] | IC50 (Cytochrome P450 1A2) [µM] | AUC(0-inf) [19] [ng·h/mL] | bioavailability [21] [%] | IC50 (Cytochrome P450 2B6) [µM] | Structure (SMILES) | Activity [14] | Activity [20] [%] | other results
4030 | 0.44 | 3.4 | 110 | 2 | 5 | 0.5 | > 25 | 0.0012 | 26 | 0.6 | 190 (≈ 76.3 µg/mL) | 1840 | 2 | > 25 | 13000 | 96 | > 25 | COCCCOc1cc2c(cc1OC)-c1cc(=O)c(C(=O)O)cn1[C@H](C(C)C)C2 | 20% | 20 | bioavailability [8]: 28%; AUC ([10]; iv, 2 mg/kg): 2362 ng·h/mL; Vdss(app) ([13]; iv, 2 mg/kg): 1.7 L/kg; AUC(0-inf) [16]: 6720 ng·h/mL; t1/2 ([18]; iv, 2 mg/kg): 1.5 h
3130 | 0.14 | 2.8 | 63 | 5 | 5 | 0.2 | > 25 | 0.012 | 20 | < 0.1 | > 200 | 702 | 1.2 | > 25 | 10700 | 63 | > 25 | COCCCOc1cc2c(cc1Cl)-c1cc(=O)c(C(=O)O)cn1[C@H](C(C)C)CO2 | 20% | 20 | F ([8]; po, 10 mg/kg): 14%; AUC(0-inf) [10]: 3370 ng·h/mL; Vd [13]: 1 L/kg; AUC ([16]; po, 10 mg/kg): 10300 ng·h/mL; half-life [18]: 1.4 h

Structure (SMILES) | Cmax [1] [ng/mL] | fraction unbound at 6 h, 2 µM [2] | half-life [3] [h] | bioavailability [4] [%] | microsomal CLint at 0.3 µM [5] [µL/min/mg] | microsomal CLint at 0.3 µM [6] [µL/min/mg] | fraction unbound at 6 h, 2 µM [7] | IC50 (Cytochrome P450 2C19) [µM] | EC50 (Hepatitis B virus) [µM] | clearance [9] [mL/min/kg] | fold change (FC) [11] | solubility kinetic at 24 h [12] [µM] | Cmax [15] [ng/mL] | half-life [17] [h] | IC50 (Cytochrome P450 1A2) [µM] | AUC(0-inf) [19] [ng·h/mL] | bioavailability [21] [%] | IC50 (Cytochrome P450 2B6) [µM] | Activity [14] | Activity [20] [%] | other results
COCCCOc1cc2c(nc1OC)-c1cc(=O)c(C(=O)O)cn1[C@H](C(C)C)C2 | 6740 | 0.5 | 3.4 | 98 | 3 | 2 | 0.46 | > 25 | 0.001 | 30 | 7.5 | > 200 | 1110 | 5.8 | > 25 | 31500 | 99 | > 25 | Non-Toxic | 20 | bioavailability [8]: 80%; AUC(0-inf) [10]: 6410 ng·h/mL; Vd [13]: 0.8 L/kg; AUC(0-inf) [16]: 14100 ng·h/mL; half-life [18]: 2.3 h
